tested on: MV4-11 cells; experiment: Antiproliferative activity, MTT assay, MV4-11 leukemia cells; type: cell-based, human; conditions: Homo sapiens, MV4-11, 72 h, 72 h incubation, MTT; read-out: Growth inhibition IC50, leukemia cell line MV4-11

Structure (SMILES) | IC50 [µM]
C=C(C)[C@@H]1CC[C@]2(COC(=O)CCC(=O)N3CCCCC3)CC[C@]3(C)C(CCC4[C@@]5(C)CC[C@H](O)C(C)(C)C5CC[C@]43C)C12 (stereo partly drawn) [2c] | 5.78

same assay, conditions: IC50 BALB/3T3 / IC50 MV4-11

Structure (SMILES) | Calculated Selectivity Index SI, MV4-11
C=C(C)[C@@H]1CC[C@]2(COC(=O)CCC(=O)N3CCCCC3)CC[C@]3(C)C(CCC4[C@@]5(C)CC[C@H](O)C(C)(C)C5CC[C@]43C)C12 (stereo partly drawn) [2c] | 5.7

tested on: A549 cells; experiment: Cell cycle analysis, PI staining flow cytometry, A549; type: cell-based, human; conditions: about IC50, 72 h
Experimental: The effects of the selected derivatives on the cell cycle were analyzed by flow cytometry using PI staining.
The MV4-11, A549 and PC-3 cells were seeded on 24-well plates (Sarstedt, Germany) for a final volume of 1.5 mL. […] After incubation, the cells were collected and 1 × 10^6 of cells were washed twice in cold PBS and fixed for 24 h in 70% ethanol at −20 °C, the cells were washed twice in PBS and incubated with RNAse (8 μg/mL, Fermentas, Germany) at 37 °C for 1 h. The cells were stained for 30 min. with propidium iodide (50 μg/mL, Sigma Aldrich, Germany) at 4 °C and the cellular DNA content was analyzed by flow cytometry using BD LSRFortessa cytometer (BD Bioscience, San Jose, CA, USA). Compounds at each concentration were tested at least three times independently. The obtained results were analyzed using Flowing software 2.5.1 (Cell Imaging Core, Turku Centre for Biotechnology, University of Turku and Åbo Akademi University, Turku, Finland).

Structure (SMILES) | Influence on cell cycle, A549, 72 h
C=C(C)[C@@H]1CC[C@]2(COC(=O)CCC(=O)N3CCCCC3)CC[C@]3(C)C(CCC4[C@@]5(C)CC[C@H](O)C(C)(C)C5CC[C@]43C)C12 (stereo partly drawn) [2c] | induced cycle arrest in the G0/G1 phase with a decrease in the G2/M phase

tested on: caspase-3/7; experiment: Caspase-3/7 activity (AC-DEVD-AMC substrate) in A549 cells; type: cell-based, human; parameters: key: +: plus mark represents statistically important elevated activity of caspase 3/7 compared to control; conditions: 1.5 × IC50, 24 h; several-fold lower at 72 h
From the text: (§1) Caspase-3 and caspase-7 are cysteine-aspartic acid proteases that can directly execute apoptosis […] sequential activation of caspase-8 or caspase-9. Activation of these enzymes leads to apoptotic cell death; thus, measuring their activity is a good method to determine the pro-apoptotic potential of tested compounds. One of the mechanisms of betulin’s antiproliferative activity is activation of these enzymes; therefore, to further examine the mechanism of action of tested derivatives, we decided to determine their levels.
The MV4-11, A549 and PC-3 cells were seeded on 48-well plates for a final volume of 1 mL. […] After incubation, the cells were collected and centrifuged (5 min., 4 °C, 250× g). Cells were suspended in 50 µL of ice-cold lysis buffer (50 mM HEPES, 10% (w/v) sucrose, 150 mM NaCl, 2 mM EDTA and 1% (v/v) Triton X-100, pH 7.3, HIIET, Poland) and incubated 30 min. at […]. After the incubation, 40 µL of each sample was transferred to a white, 96-well plate (Corning, CA, USA) containing 160 µL of the reaction buffer (20 mM HEPES, 10 % sucrose, 100 mM NaCl, 1 mM EDTA, 10 mM DTT, 0.02 % Trition X-100, pH 7.3) (HIIET, Wroclaw, Poland) with 9 µM AC-DEVD-AMC (Cayman Chemical) fluorogenic substrate (λex = 360 nm, λem = 460 nm). The fluorescence increase correlated with the caspase-3/7 level was continuously recorded at 37 °C for 120 min using a Biotek Synergy H4 (Biokom, Warsaw, Poland). Compounds were tested in duplicates in a single experiment and each experiment was repeated at least three times independently. Results were normalized to the number of cells in each well and are reported as mean relative caspase-3/7 activity compared to the untreated control sample ± SD.

Structure (SMILES) | caspase 3/7 activity, A549
C=C(C)[C@@H]1CC[C@]2(COC(=O)CCC(=O)N3CCCCC3)CC[C@]3(C)C(CCC4[C@@]5(C)CC[C@H](O)C(C)(C)C5CC[C@]43C)C12 (stereo partly drawn) [2c] | hugely elevated caspase 3/7 activity

same assay, conditions: +/− summary vs control

Structure (SMILES) | caspase 3/7 activity, A549
C=C(C)[C@@H]1CC[C@]2(COC(=O)CCC(=O)N3CCCCC3)CC[C@]3(C)C(CCC4[C@@]5(C)CC[C@H](O)C(C)(C)C5CC[C@]43C)C12 (stereo partly drawn) [2c] | +

tested on: caspase-3/7; experiment: Caspase-3/7 activity (AC-DEVD-AMC substrate) in MV4-11 cells; type: cell-based, human; conditions: not given
From the text: as §1
The MV4-11, A549 and PC-3 cells were seeded on 48-well plates for a final volume of 1 mL. […] After incubation, the cells were collected and centrifuged (5 min., 4 °C, 250× g). Cells were suspended in 50 µL of ice-cold lysis buffer (50 mM HEPES, 10% (w/v) sucrose, 150 mM NaCl, 2 mM EDTA and 1% (v/v) Triton X-100, pH 7.3, HIIET, Poland) and incubated 30 min. at 40 °C. […] The fluorescence increase correlated with the caspase-3/7 level was continuously recorded at 37 °C for 120 min using a Biotek Synergy H4 (Biokom, Warsaw, Poland). […]

Structure (SMILES) | caspase-3/7 levels, MV4-11, 24 h
C=C(C)[C@@H]1CC[C@]2(COC(=O)CCC(=O)N3CCCCC3)CC[C@]3(C)C(CCC4[C@@]5(C)CC[C@H](O)C(C)(C)C5CC[C@]43C)C12 (stereo partly drawn) [2c] | increased levels of caspase-3/7

tested on: not listed separately; experiment: in vitro; conditions: mouse
Experimental: (§2) The in vitro antiproliferative activity tests have been conducted against four human cancer cell lines: MV4-11 biphenotypic B myelomonocytic leukemia cell line, A549 lung carcinoma cell line, MCF-7 breast carcinoma cell line, PC-3 prostate carcinoma cell line and one normal BALB/3T3 mouse fibroblast cell line. […] All tested compounds were dissolved in DMSO and diluted with a culture medium to a desired concentration. […] Cell viability, after 72 h incubation of the cells with tested compounds, was determined using tetrazolinum dye MTT (for MV4-11 cells) or sulforhodamine B (SRB test, for MCF-7, A549, PC-3, BALB/3T3 cells) colorimetric assays.
(§3) Human biphenotypic B myelomonocytic leukemia MV4-11, murine normal fibroblast BALB/3T3 cells were obtained from the American Type Culture Collection (USA); and human lung carcinoma A549, human breast cancer MCF-7 and human prostate adenocarcinoma PC-3 were obtained from the European Collection of Authenticated Cell Cultures (UK).
(§4) MV4-11 and PC-3 cells were cultured in RPMI 1640 medium (HIIET PAS, Poland) with 1.0 mM sodium pyruvate (only MV4-11) and 10% fetal bovine serum (FBS) (all from Merck, Darmstadt, Germany). A549 cells were cultured in RPMI 1640 + Opti-MEM (1:1) ((HIIET PAS, Poland and Gibco, UK) supplemented with 5% fetal bovine serum (Merck, Darmstadt, Germany). The MCF-7 cells were cultured in Eagle medium (HIIET PAS, Poland) supplemented with 8 mg/mL of insulin and 1% of MEM NON-Essential amino acid (all Merck, Darmstadt, Germany). Normal fibroblasts BALB/3T3 cells were cultured in DMEM medium (Gibco, UK) supplemented with 10% fetal bovine serum and 1.0 mM sodium pyruvate (all from Merck, Darmstadt, Germany). All culture media were supplemented with 2 mM L-glutamine (Merck, Darmstadt, Germany), 100 units/ml penicillin, (Polfa Tarchomin S.A., Poland) and 100 µg/mL streptomycin (Merck, Darmstadt, Germany). All cell lines were grown at 37 °C in a 5% CO2 humidified atmosphere.
(§5) The solutions of the tested compounds were prepared by dissolving the substances in DMSO to the desired concentration (25 mM). Then, the tested compounds were diluted in a culture medium to reach the final concentrations. Before addition of the tested compounds (24 h prior), the cells were plated in 96-well plates (Sarstedt, Germany) at a density of 1 × 10^4, 0.75 × 10^4 (MCF-7) or 0.5 × 10^4 (A549) cells per well. The assay was performed after 72 h of exposure to 100, 10, 1 and 0.1 µM concentration of the tested agents. […] The SRB method determined the amount of cellular proteins. The concentration of the colorimetric probe (formazan in MTT or sulforhodamine B in SRB method) was determined by an optical density measurement using a standard microplate reader for 96-well plates. After optical density measurement, using the data of the mean absorbances of control cells (AbCC), the absorbances of cells treated by the tested compound (AbTr) (for each concentration separately) and the absorbance of the cultured medium (AbCM) the % of cell proliferation inhibition was calculated according to the following formula: % inh. cells proliferation=100−AbTr−AbCM/AbCC−AbCM×100
(§6) From the obtained proliferation inhibition values, effect-concentration curves of the compound used were plotted. […] IC50 values were calculated for each experiment separately using the Prolab-3 system based on Cheburator 0.4 software [36] and mean values (±SD) are presented. Each compound in each concentration was tested in triplicate in a single experiment, which was repeated 3–5 times.

Structure (SMILES) | IC50 at 72 h [µM]
C=C(C)[C@@H]1CC[C@]2(COC(=O)CCC(=O)N3CCCCC3)CC[C@]3(C)C(CCC4[C@@]5(C)CC[C@H](O)C(C)(C)C5CC[C@]43C)C12 (stereo partly drawn) [2c] | 32.7

tested on: not listed separately; experiment: Experimental lipophilicity by RP-TLC; conditions: RP-TLC, RP-18 F254S, acetone / Tris buffer pH 7.4, extrapolated to zero acetone
Experimental: The retention mechanism in the RP-TLC method is based on the partition of substances between two phases. Silica gel (RP-18 F254S plates) was used as the hydrophobic stationary phase. In contrast, the hydrophilic mobile phase was a binary mixture of acetone and an aqueous solution of TRIS buffer.
Chromatographic analysis by RP-TLC was performed an aluminum backed silica gel RP-18 F254S
phenylanthracene] and tested betulin derivatives were dissolved in chloroform to obtain a
concentration of 2 mg/mL. The prepared solutions were spotted on the plates in the amount of 2 μL.
the next step, the chromatographic chambers were saturated 30 min of the appropriate mobile phases
consisting of a mixture of acetone (Merck, Darmstadt, Germany) and aqueous solution of buffer Tris
[(tris-hydroxymethyl)aminomethane] (Fluka, Loughborough, 0.2 M, pH 7.4). The amount of acetone in
the mobile phase were in the range 60-90% in 5% increments. The chromatograms were developed for
each compound in triplicate at room temperature. The spots of betulin derivatives were visualized by
spraying the plates with the mixture of ethanol and concentrated sulfuric acid (10:1, v/v) and heating
The retardation factor (Rf) were calculated according to the equation below:
(a-the distance from the start line to the spot center, b-the distance from the start line to the mobile
The RM values were calculated by the Bate-Smith and Westall equation:
The RM0 parameters were obtained by extrapolating on the acetone content to zero, according to the
Soczewiński-Wachtmeister equation:
(C-the percentage concentration of acetone in the mobile phase, b-the slope of the regression plot).
The calibration curve was determined using eight reference compounds.
compounds were determined under the same conditions as for betulin derivatives (Table S1).

Structure (SMILES) | RM0
C=C(C)[C@@H]1CC[C@]2(COC(=O)CCC(=O)N3CCCCC3)CC[C@]3(C)C(CCC4[C@@]5(C)CC[C@H](O)C(C)(C)C5CC[C@]43C)C12 (stereo partly drawn) [2c] | 5.728

tested on: A549 cell line; experiment: Antiproliferative activity, SRB assay, A549 lung carcinoma cells; conditions: +/− summary, IC50 vs betulin 1
Experimental: as §2, §3, §4, §5, §6

Structure (SMILES) | Antiproliferative Activity, A549
C=C(C)[C@@H]1CC[C@]2(COC(=O)CCC(=O)N3CCCCC3)CC[C@]3(C)C(CCC4[C@@]5(C)CC[C@H](O)C(C)(C)C5CC[C@]43C)C12 (stereo partly drawn) [2c] | +

same assay, conditions: Homo sapiens, A549, 72 h, read-out: Cytotoxicity IC50 against A549 cell line

Structure (SMILES) | IC50 [µM]
C=C(C)[C@@H]1CC[C@]2(COC(=O)CCC(=O)N3CCCCC3)CC[C@]3(C)C(CCC4[C@@]5(C)CC[C@H](O)C(C)(C)C5CC[C@]43C)C12 (stereo partly drawn) [2c] | 6.98

same assay, conditions: IC50 BALB/3T3 / IC50 A549

Structure (SMILES) | Calculated Selectivity Index SI, A549
C=C(C)[C@@H]1CC[C@]2(COC(=O)CCC(=O)N3CCCCC3)CC[C@]3(C)C(CCC4[C@@]5(C)CC[C@H](O)C(C)(C)C5CC[C@]43C)C12 (stereo partly drawn) [2c] | 4.7

tested on: MCF-7 cell line; experiment: Antiproliferative activity, SRB assay, MCF-7 breast carcinoma cells; conditions: Homo sapiens, MCF7, 72 h, read-out: Cytotoxicity IC50 against MCF-7 cell line
Experimental: as §2, §3, §4, §5, §6

Structure (SMILES) | IC50 [µM]
C=C(C)[C@@H]1CC[C@]2(COC(=O)CCC(=O)N3CCCCC3)CC[C@]3(C)C(CCC4[C@@]5(C)CC[C@H](O)C(C)(C)C5CC[C@]43C)C12 (stereo partly drawn) [2c] | 22.2

same assay, conditions: IC50 BALB/3T3 / IC50 MCF-7

Structure (SMILES) | Calculated Selectivity Index SI, MCF-7
C=C(C)[C@@H]1CC[C@]2(COC(=O)CCC(=O)N3CCCCC3)CC[C@]3(C)C(CCC4[C@@]5(C)CC[C@H](O)C(C)(C)C5CC[C@]43C)C12 (stereo partly drawn) [2c] | 1.5

tested on: PC-3 cell line; experiment: Antiproliferative activity, SRB assay, PC-3 prostate carcinoma cells; conditions: Homo sapiens, PC-3, 72 h, read-out: Cytotoxicity IC50 against PC-3 cell line
Experimental: as §2, §3, §4, §5, §6

Structure (SMILES) | IC50 [µM]
C=C(C)[C@@H]1CC[C@]2(COC(=O)CCC(=O)N3CCCCC3)CC[C@]3(C)C(CCC4[C@@]5(C)CC[C@H](O)C(C)(C)C5CC[C@]43C)C12 (stereo partly drawn) [2c] | 30.9

same assay, conditions: IC50 BALB/3T3 / IC50 PC-3

Structure (SMILES) | Calculated Selectivity Index SI, PC-3
C=C(C)[C@@H]1CC[C@]2(COC(=O)CCC(=O)N3CCCCC3)CC[C@]3(C)C(CCC4[C@@]5(C)CC[C@H](O)C(C)(C)C5CC[C@]43C)C12 (stereo partly drawn) [2c] | 1.1
